Paper PMC11950731 (Synthetic and Systems Biotechnology, 2025)

Legend:
PpUGT91AH4 = assay: LC-MS glucosyltransferase assay, varied trillin; type: biochemical, Paris polyphylla; details: saturating UDP-glucose; assay buffer 50 mM Tris-HCl pH 8.0, 1 mM MgCl2, 37 °C
PpUGT91AH5 = assay: LC-MS glucosyltransferase assay, varied trillin; type: biochemical, Paris polyphylla; details: saturating UDP-glucose; assay buffer 50 mM Tris-HCl pH 8.0, 1 mM MgCl2, 37 °C

## C[C@@H]1CC[C@@]2(OC1)O[C@H]1C[C@H]3[C@@H]4CC=C5C[C@@H](O[C@@H]6O[C@H](CO)[C@@H](O)[C@H](O)[C@H]6O)CC[C@]5(C)[C@H]4CC[C@]3(C)[C@H]1[C@@H]2C [trillin]
PpUGT91AH4
  Km: 5.67 ± 0.84 mM
PpUGT91AH5
  Km: 7.81 ± 1.2 mM
